≈ marks a conversion by molar mass, not a printed value.
Tested on: Escherichia coli ATCC 25922
Test: Minimal Inhibitory Concentration (MIC) determination, broth microdilution (CLSI M07-A10)
Type: cell-based
Conditions: Escherichia coli, ATCC25922, strain Escherichia coli ATCC 25922, 18-24 hours at 35±2° C., lowest concentration for complete growth inhibition (no visible growth), read-out: Escherichia coli growth inhibition MIC
Procedure, shortened: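 Broth microdilution per CLSI M07-A10; compounds in 2-fold serial dilutions; inoculum from 0.5 McFarland suspension diluted 1:200 in broth. Incubated 18-24 h at 35±2° C in ambient air; MIC (μg/mL) taken as lowest concentration giving no visible growth.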

Row | SMILES | MIC [µg/mL]
1 | O=C1COc2ncc(N3CC4(CCN(CC5Cc6c(c(F)c7[nH]c([C@H]8CCCN8)nc7c6F)C5)CC4)OC3=O)nc2N1 [Example 24, 6-[8-[[4,8-difluoro-2-[(2R)-pyrrolidin-2-yl]-3,5,6,7-tetrahydrocyclopenta[f]benzimidazol-6-yl]methyl]-2-oxo-1-oxa-3,8-diazaspiro[4.5]decan-3-yl]-4H-pyrazino[2,3-b][1,4]oxazin-3-one] | 0.125 (≈ 0.215 µM)
2 | C[C@@H](N)c1nc2c(F)c3c(c(F)c2[nH]1)CC(CN1CCC2(CC1)CN(c1cnc4c(n1)NC(=O)CO4)C(=O)O2)C3.O=C(O)C(F)(F)F [Example 25, 6-[8-[[2-[(1R)-1-aminoethyl]-4,8-difluoro-3,5,6,7-tetrahydrocyclopenta[f]benzimidazol-6-yl]methyl]-2-oxo-1-oxa-3,8-diazaspiro[4.5]decan-3-yl]-4H-pyrazino[2,3-b][1,4]oxazin-3-one; 2,2,2-trifluoroacetic acid] | ≤ 0.06
3 | CN[C@H](C)c1nc2c(F)c3c(c(F)c2[nH]1)CC(CNC1CC2(C1)CN(c1cnc4c(n1)NC(=O)CO4)C(=O)O2)C3 (stereo partly drawn) [Example 26, 6-[2-[[4,8-difluoro-2-[(1R)-1-(methylamino)ethyl]-3,5,6,7-tetrahydrocyclopenta[f]benzimidazol-6-yl]methylamino]-6-oxo-5-oxa-7-azaspiro[3.4]octan-7-yl]-4H-pyrazino[2,3-b][1,4]oxazin-3-one] | 0.5 (≈ 0.902 µM)
4 | CN[C@H]1CN[C@H](c2nc3c(F)c4c(c(F)c3[nH]2)CC(CN2CCC3(CC2)CN(c2cnc5c(n2)NC(=O)CO5)C(=O)O3)C4)C1 [Example 27, 6-[8-[[4,8-difluoro-2-[(2S,4R)-4-(methylamino)pyrrolidin-2-yl]-3,5,6,7-tetrahydrocyclopenta[f]benzimidazol-6-yl]methyl]-2-oxo-1-oxa-3,8-diazaspiro[4.5]decan-3-yl]-4H-pyrazino[2,3-b][1,4]oxazin-3-one] | 0.25 (≈ 0.41 µM)
5 | O=C(O)C(F)(F)F.O=C1COc2ncc(N3CC4(CCN(CC5Cc6c(c(F)c7[nH]c([C@@H]8CC(O)CCN8)nc7c6F)C5)CC4)OC3=O)nc2N1 (stereo partly drawn) [Example 28, 6-[8-[[4,8-difluoro-2-[(2S)-4-hydroxy-2-piperidyl]-3,5,6,7-tetrahydrocyclopenta[f]benzimidazol-6-yl]methyl]-2-oxo-1-oxa-3,8diazaspiro[4.5]decan-3-yl]-4H-pyrazino[2,3-b][1,4]oxazin-3-one; 2,2,2-trifluoroacetic acid] | 0.25
6 | CN(C)Cc1nc2c(F)c3c(c(F)c2[nH]1)CC(CNC1CC2(C1)CN(c1cnc4c(n1)NC(=O)CO4)C(=O)O2)C3 (stereo not shown) [Example 29, 6-[2-[[2-[(dimethylamino)methyl]-4,8-difluoro-3,5,6,7-tetrahydrocyclopenta[f]benzimidazol-6-yl]methylamino]-6-oxo-5-oxa-7-azaspiro[3.4]octan-7-yl]-4H-pyrazino[2,3-b][1,4]oxazin-3-one] | 0.5 (≈ 0.902 µM)
7 | CC(C)(N)c1nc2c(F)c3c(c(F)c2[nH]1)CC(CN1CCC2(CC1)CN(c1cnc4c(n1)NC(=O)CO4)C(=O)O2)C3 [Example 30, 6-[8-[[2-(1-amino-1-methyl-ethyl)-4,8-difluoro-3,5,6,7-tetrahydrocyclopenta[f]benzimidazol-6-yl]methyl]-2-oxo-1-oxa-3,8-diazaspiro[4.5]decan-3-yl]-4H-pyrazino[2,3-b][1,4]oxazin-3-one] | 0.125 (≈ 0.22 µM)
8 | N[C@H]1COC[C@@H]1c1nc2c(F)c3c(c(F)c2[nH]1)CC(CN1CCC2(CC1)CN(c1cnc4c(n1)NC(=O)CO4)C(=O)O2)C3 [Example 31, 6-[8-[[4,8-difluoro-2-[(3S,4R)-4-aminotetrahydrofuran-3-yl]-3,5,6,7-tetrahydrocyclopenta[f]benzimidazol-6-yl]methyl]-2-oxo-1-oxa-3,8-diazaspiro[4.5]decan-3-yl]-4H-pyrazino[2,3-b][1,4]oxazin-3-one] | 0.25 (≈ 0.419 µM)
9 | Nc1nc2c(F)c3c(c(F)c2[nH]1)CC(CN1CCC2(CC1)CN(c1cnc4c(n1)NC(=O)CO4)C(=O)O2)C3 [Example 32, 6-[8-[(2-amino-4,8-difluoro-3,5,6,7-tetrahydrocyclopenta[f]benzimidazol-6-yl)methyl]-2-oxo-1-oxa-3,8-diazaspiro[4.5]decan-3-yl]-4H-pyrazino[2,3-b][1,4]oxazin-3-one] | 0.25 (≈ 0.475 µM)
10 | CNCc1nc2c(F)c3c(c(F)c2n1C)CC(CN1CCC2(CC1)CN(c1cnc4c(n1)NC(=O)CO4)C(=O)O2)C3 (stereo not shown) [Example 33, 6-[8-[[4,8-difluoro-1-methyl-2-(methylaminomethyl)-6,7-dihydro-5H-cyclopenta[f]benzimidazol-6-yl]methyl]-2-oxo-1-oxa-3,8-diazaspiro[4.5]decan-3-yl]-4H-pyrazino[2,3-b][1,4]oxazin-3-one] | 0.25 (≈ 0.44 µM)
11 | O=C1COc2ncc(N3CC4(CCN(CC5Cc6c(c(F)c7[nH]c(C89CC(CN8)C9)nc7c6F)C5)CC4)OC3=O)nc2N1 [Example 34, 6-[8-[[2-(2-azabicyclo[2.1.1]hexan-1-yl)-4,8-difluoro-3,5,6,7-tetrahydrocyclopenta[f]benzimidazol-6-yl]methyl]-2-oxo-1-oxa-3,8-diazaspiro[4.5]decan-3-yl]-4H-pyrazino[2,3-b][1,4]oxazin-3-one] | 0.25 (≈ 0.422 µM)
12 | CNCC(=O)Nc1nc2c(F)c3c(c(F)c2[nH]1)CC(CN1CCC2(CC1)CN(c1cnc4c(n1)NC(=O)CO4)C(=O)O2)C3 [Example 35, N-[4,8-difluoro-6-[[2-oxo-3-(3-oxo-4H-pyrazino[2,3-b][1,4]oxazin-6-yl)-1-oxa-3,8-diazaspiro[4.5]decan-8-yl]methyl]-3,5,6,7-tetrahydrocyclopenta[f]benzimidazol-2-yl]-2-(methylamino)acetamide] | 0.125 (≈ 0.209 µM)
13 | C[C@H](O)[C@@H](N)c1nc2c(F)c3c(c(F)c2[nH]1)CC(CN1CCC2(CC1)CN(c1cnc4c(n1)NC(=O)CO4)C(=O)O2)C3 [Example 36, 6-[8-[[2-[(1S,2S)-1-amino-2-hydroxy-propyl]-4,8-difluoro-3,5,6,7-tetrahydrocyclopenta[f]benzimidazol-6-yl]methyl]-2-oxo-1-oxa-3,8-diazaspiro[4.5]decan-3-yl]-4H-pyrazino[2,3-b][1,4]oxazin-3-one] | 0.5 (≈ 0.855 µM)
14 | CO[C@@H]1CN[C@@H](c2nc3c(F)c4c(c(F)c3[nH]2)CC(CN2CCC3(CC2)CN(c2cnc5c(n2)NC(=O)CO5)C(=O)O3)C4)C1 [Example 37, 6-[8-[[4,8-difluoro-2-[(2R,4S)-4-methoxypyrrolidin-2-yl]-3,5,6,7-tetrahydrocyclopenta[f]benzimidazol-6-yl]methyl]-2-oxo-1-oxa-3,8-diazaspiro[4.5]decan-3-yl]-4H-pyrazino[2,3-b][1,4]oxazin-3-one] | 0.25 (≈ 0.409 µM)
15 | CN[C@@H](C)c1nc2c(F)c3c(c(F)c2[nH]1)CC(CN1CCC2(CC1)CN(c1cnc4c(n1)NC(=O)CO4)C(=O)O2)C3 [Example 38, 6-[8-[[4,8-difluoro-2-[(1S)-1-(methylamino)ethyl]-3,5,6,7-tetrahydrocyclopenta[f]benzimidazol-6-yl]methyl]-2-oxo-1-oxa-3,8-diazaspiro[4.5]decan-3-yl]-4H-pyrazino[2,3-b][1,4]oxazin-3-one] | 0.125 (≈ 0.22 µM)
16 | Nc1cnc2c(F)c3c(c(F)c2n1)CC(CN1CCC2(CC1)CN(c1cnc4c(n1)NC(=O)CO4)C(=O)O2)C3 (stereo not shown) [Example 39, 6-[8-[(3-amino-5,9-difluoro-7,8-dihydro-6H-cyclopenta[g]quinoxalin-7-yl)methyl]-2-oxo-1-oxa-3,8-diazaspiro[4.5]decan-3-yl]-4H-pyrazino[2,3-b][1,4]oxazin-3-one] | 0.5 (≈ 0.928 µM)
17 | CNCCNc1cnc2c(F)c3c(c(F)c2n1)CC(CN1CCC2(CC1)CN(c1cnc4c(n1)NC(=O)CO4)C(=O)O2)C3 (stereo not shown) [Example 40, 6-[8-[[5,9-difluoro-3-[2-(methylamino)ethylamino]-7,8-dihydro-6H-cyclopenta[g]quinoxalin-7-yl]methyl]-2-oxo-1-oxa-3,8-diazaspiro[4.5]decan-3-yl]-4H-pyrazino[2,3-b][1,4]oxazin-3-one] | 0.5 (≈ 0.839 µM)
18 | NCCn1nc2c(F)c3c(c(F)c2n1)CC(CN1CCC2(CC1)CN(c1cnc4c(n1)NC(=O)CO4)C(=O)O2)C3 [Example 41, 6-[8-[[2-(2-aminoethyl)-4,8-difluoro-6,7-dihydro-5H-cyclopenta[f]benzotriazol-6-yl]methyl]-2-oxo-1-oxa-3,8-diazaspiro[4.5]decan-3-yl]-4H-pyrazino[2,3-b][1,4]oxazin-3-one] | ≤ 0.06
19 | NCCn1nnc2c(F)c3c(c(F)c21)CC(CN1CCC2(CC1)CN(c1cnc4c(n1)NC(=O)CO4)C(=O)O2)C3 (stereo not shown) [Example 42, 6-[8-[[1-(2-aminoethyl)-4,8-difluoro-6,7-dihydro-5H-cyclopenta[f]benzotriazol-6-yl]methyl]-2-oxo-1-oxa-3,8-diazaspiro[4.5]decan-3-yl]-4H-pyrazino[2,3-b][1,4]oxazin-3-one] | ≤ 0.06
20 | NCCn1c(=O)n(CCN)c2c(F)c3c(c(F)c21)CC(CN1CCC2(CC1)CN(c1cnc4c(n1)NC(=O)CO4)C(=O)O2)C3.O=C(O)C(F)(F)F [Example 43, 6-[8-[[1,3-bis(2-aminoethyl)-4,8-difluoro-2-oxo-6,7-dihydro-5H-cyclopenta[f]benzimidazol-6-yl]methyl]-2-oxo-1-oxa-3,8-diazaspiro[4.5]decan-3-yl]-4H-pyrazino[2,3-b][1,4]oxazin-3-one; 2,2,2-trifluoroacetic acid] | 2
21 | NCCn1c(=O)[nH]c2c(F)c3c(c(F)c21)CC(CN1CCC2(CC1)CN(c1cnc4c(n1)NC(=O)CO4)C(=O)O2)C3 (stereo not shown) [Example 44, 6-[8-[[1-(2-aminoethyl)-4,8-difluoro-2-oxo-3,5,6,7-tetrahydrocyclopenta[f]benzimidazol-6-yl]methyl]-2-oxo-1-oxa-3,8-diazaspiro[4.5]decan-3-yl]-4H-pyrazino[2,3-b][1,4]oxazin-3-one] | 0.25 (≈ 0.438 µM)
22 | C[C@@H](N)c1nc2cc3c(c(F)c2[nH]1)CC(CN1CCC2(CC1)CN(c1cnc4c(n1)NC(=O)CO4)C(=O)O2)C3 (stereo partly drawn) [Example 45, 6-[8-[[2-[(1R)-1-aminoethyl]-8-fluoro-1,5,6,7-tetrahydrocyclopenta[f]benzimidazol-6-yl]methyl]-2-oxo-1-oxa-3,8-diazaspiro[4.5]decan-3-yl]-4H-pyrazino[2,3-b][1,4]oxazin-3-one] | 0.125 (≈ 0.233 µM)
